In patent US7094752B2 (Chiron Corporation, priority 1997, dated 2006):

What was measured:
[1] = biological target: T1, uPA1–48:uPAR complexes binding to vitronectin (Homo sapiens, UniProt Q03405); experiment: Vitronectin binding assay (ELISA); settings: 20 nM biotinylated suPAR, 20 nM uPA1–48
T1 construct: sUPAR, soluble truncated form of the urokinase receptor; made in house; host or cells: suPAR: baculovirus-infected Sf9 cells; uPA1-48: recombinant yeast; vitronectin: purified from human plasma
Experimental: Vitronectin was purified from human plasma by the method of Yatohgo et al, Cello Struct.and Funct. 13: 281–292 (1988). Purified vitronectin was diluted to 20 μg/ml in PBS containing 1 mM CaCl2 and 0.5 mM MgCl2, dispensed at 50 μl/well into Immulon II wells (Dynatech, Chantilly, Va.), incubated overnight at 4° C. and washed with PBS/BSA. Biotinylated sUPAR was diluted to 20 nM in PBS/BSA, incubated with or without test ligand for 30 minutes at room temperature (22° C.), dispensed at 100 μl/well and incubated for 90 minutes. Wells were then washed and horseradish peroxidase (HRP)-conjugated streptavidin was added at 0.4 μg/ml in PBS/2% BSA for 1 hour followed by washing and addition of 100 μl/well TMB substrate. The color development was stopped with 100 μl of 0.8N H2SO4 and the absorbance at 450 nm measured in a 96 well plate reader (Dynatech, Chantilly, Va.). Antagonistic effects of test ligands were measured as described above except the ligands were incubated with 20 nM biotinylated suPAR in the presence of 20 nM uPA1–48.
In order to analyze the effects of the various peptide ligands on the uPAR:vitronectin interaction, we developed an in vitro ELISA based assay for this interaction, in which biotinylated suPAR and uPA1–48 bind to immobilized, urea purified vitronectin, and the bound sUPAR is detected with HRP conjugated streptavidin. Under the conditions of the assay binding of biotinylated uPAR to vitronectin is strictly dependent on uPA1–48, as shown in FIG. 1.

[2] = tested on: GPI-uPAR dependent adhesion of 293 cells to vitronectin; experiment: Adhesion of GPI-uPAR expressing 293 cells to vitronectin; type: cell-based
From the text: In order to ascertain whether cytoskeletal connecting elements important to integrin-dependent adhesion were also involved in adhesion mediated by uPAR, embryonic kidney cells (293 cells) were engineered to coexpress uPAR along with a chimeric protein comprised of the β1 cytoplasmic tail fused with the transmembrane domain of […] (CD4). […] Co-expression of uPAR with β1 cytoplasmic domains completely abrogated uPAR-dependent vitronectin adhesion. Clones expressing full length or truncated β1 cytoplasmic tails prepared as in Lukashev et al, J. Biol. Chem. 26: 18311 (1994) were transfected with cDNA for GPI-uPAR and selected as in Wei et al, J. Biol. Chem. 169: 32380 (1994). Chimeric β1 expression was induced by cadmium for 6 hours prior to assaying adhesion to vitronectin at 37° C. Following induction of full length β1 chimerics, essentially no cells were adherent to vitronectin-coated surfaces whereas co-transfectants expressing the truncated β1 adhered avidly.
Cell adhesion assays were conducted to determin whether the observed uPAR/β1/caveolin complexes were functionally relevant.
To test this hypothesis further, a phage display peptide library was screened for uPAR-binding phages. A number of phage peptides were isolated as described in Goodson et al, Proc. Natl. Acad. Sci. U.S.A. 91: 7129 (1994). […]

soluble uPAR = soluble uPAR (Homo sapiens, UniProt Q03405); type: binding; set-up: sUPAR, soluble truncated form of the urokinase receptor; made in house; host or cells: baculovirus-infected Sf9 insect cells
Experimental: Streptavidin, 100 μl (0.1 mg/ml) in 50 mM Na2CO3, pH 9.6, was added to MaxiSorp wells (Nunc), incubated overnight at 4 C, and then washed with PBS/BSA. Biotinylated sUPAR (25 nM in PBS/BSA) was added to the wells and incubated for 2 hours at room temperature prior to washing. Competitive peptide inhibitors were added to the wells immediately prior to addition of the bacteriophage. The wells were incubated for one hour at room temperature, then washed and bound bacteriophage eluted with 6M urea in 0.1N HCl, pH 2.5. After 15 minutes, the urea eluate was brought to neutral pH by addition of 2M Tris base and the bacteriophage titers of input stocks and elutions measured by plaque formation assay. Results were expressed as the percent of input bacteriophage which bind to the wells. Alternatively, the amount of bacteriophage was determined in an ELISA where phage were preincubated with HRP-conjugated anti-M13 antibody for 30 minutes at room temperature before dispensing into wells prepared as above and incubated for one hour at room temperature. The final anti-M13 conjugate dilution was 1:4000. After washing, TMB substrate (100 μl/well) was added and color development was stopped with 0.8N H2SO4 (100 μl/well). The absorbance at 450 nm was then measured in a 96 well plate reader.
In a uPAR binding assay, the following analogs were tested in a competition with phage displaying either peptide 25 or peptide 9. The analogs comprise both natural and unnatural amino acids.
The analogs were tested in an assay utilizing soluble uPAR, similar to the method described in Example 2. The analogs were tested for their ability to compete with phage displaying either peptide 9 or peptide 25. Analogs 3–61 were tested in competition with peptide 25. Analogs 62–96 were tested in competition with peptide 9. Approximately 10^8 plaque forming units of the phage were used in the assay.
The analogs were tested at a concentration at 40 μM in the uPAR competition assay with phage displaying peptide 25. The results below show which analogs were active.
Analogs 31–61 were tested for their ability to compete with phage displaying peptide 25. The active analogs were tested further at two concentrations, 5 μM and 2.5 μM. These concentrations were calculated based on the synthesis reactions. However, the sequences * were further tested and determined to contain high amounts of amino acids and the quantity tested could have been higher than 5 μM or 2.5 μM.

Chain of soluble uPAR (Q03405 23-305 limits assumed): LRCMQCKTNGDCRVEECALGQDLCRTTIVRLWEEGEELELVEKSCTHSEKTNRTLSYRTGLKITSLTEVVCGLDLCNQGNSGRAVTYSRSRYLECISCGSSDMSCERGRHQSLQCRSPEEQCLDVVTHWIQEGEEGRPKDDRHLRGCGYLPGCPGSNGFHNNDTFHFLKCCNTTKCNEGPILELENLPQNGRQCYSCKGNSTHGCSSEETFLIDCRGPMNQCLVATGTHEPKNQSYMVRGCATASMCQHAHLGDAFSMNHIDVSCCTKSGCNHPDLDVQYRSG
T1 sequence (Q03405 23-305 limits assumed, one chain of several): as the sequence (Q03405 23-305 limits assumed) above

H-AESTYHHLSLGYMYTLN-NH2 [peptide 25]
effect on binding of uPA1–48:uPAR complexes to vitronectin [1]: little or no effect
IC50 [2]: ~60 µM
% Inhibition 2.5 uM (soluble uPAR; 2500.0): 45%
% Inhibition 5 uM (soluble uPAR; 5000.0): 59%
